We go through one compound from BindingDB's records for doi:10.1021/acs.jmedchem.8b00401 (2019).

The target of one experiment is D(3) dopamine receptor (Homo sapiens, UniProt P35462). Put plainly: Displacement of [3H]-N-methylspiperone from recombinant human D3R expressed in HEK cell membranes after 90 mins by scintillation counting method.
In experiment [1] the target is Sodium-dependent dopamine transporter (Homo sapiens, UniProt Q01959). Description: Displacement of [3H]-WIN35428 from recombinant human DAT expressed in HEK cell membranes after 90 mins by scintillation counting method.
Sodium-dependent dopamine transporter, sequence (Q01959 whole entry): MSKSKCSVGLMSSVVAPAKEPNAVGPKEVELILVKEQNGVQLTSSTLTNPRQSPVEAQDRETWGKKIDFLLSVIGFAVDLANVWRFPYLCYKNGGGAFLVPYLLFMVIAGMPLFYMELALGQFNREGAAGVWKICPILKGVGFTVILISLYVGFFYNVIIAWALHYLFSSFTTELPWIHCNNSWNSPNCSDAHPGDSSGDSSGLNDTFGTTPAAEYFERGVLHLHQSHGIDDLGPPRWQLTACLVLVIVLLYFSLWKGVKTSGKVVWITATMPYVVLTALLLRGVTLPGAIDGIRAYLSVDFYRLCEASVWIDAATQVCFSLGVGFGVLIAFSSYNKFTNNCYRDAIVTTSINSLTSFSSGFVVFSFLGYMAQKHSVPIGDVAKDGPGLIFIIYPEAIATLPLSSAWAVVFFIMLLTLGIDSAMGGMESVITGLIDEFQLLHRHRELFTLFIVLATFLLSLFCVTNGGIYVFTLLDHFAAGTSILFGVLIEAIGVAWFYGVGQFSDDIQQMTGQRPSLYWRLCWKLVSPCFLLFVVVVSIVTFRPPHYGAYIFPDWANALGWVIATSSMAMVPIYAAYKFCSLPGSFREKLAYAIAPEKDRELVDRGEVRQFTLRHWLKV

D(3) dopamine receptor, sequence (P35462 as listed by the source): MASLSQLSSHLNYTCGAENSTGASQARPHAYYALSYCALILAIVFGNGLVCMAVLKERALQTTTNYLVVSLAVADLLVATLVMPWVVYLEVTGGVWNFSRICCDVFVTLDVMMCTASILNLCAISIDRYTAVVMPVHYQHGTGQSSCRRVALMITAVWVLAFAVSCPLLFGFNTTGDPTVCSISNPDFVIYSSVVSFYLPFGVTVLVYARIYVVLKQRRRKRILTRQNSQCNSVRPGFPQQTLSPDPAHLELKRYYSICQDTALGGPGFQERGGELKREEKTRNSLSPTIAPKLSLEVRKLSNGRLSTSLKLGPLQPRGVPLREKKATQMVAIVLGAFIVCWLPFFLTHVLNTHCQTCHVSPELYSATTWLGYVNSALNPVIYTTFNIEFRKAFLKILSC

For the compound `CCCCCCCCCCC[C@@H]1CCN[C@H](C(=O)NCC(O)CO)C1` (some centres not stated), the values for the inhibitory constant (Ki) (at D(3) dopamine receptor; in experiment [1]) were 4.7 µM and 1.8 µM, respectively.
